Where two headings read alike, the source gives them in different places. Values belong to the substance of their own block, whether it stands above or below them. No end group written: not given here.
Tests used:
S. aureus ATCC 33592 = format: cell-based, Staphylococcus aureus
Experimental: (§1) The strains that were used in this study (Table 2 and Table S1) were cultivated at 37 °C in cation-adjusted Mueller–Hinton broth (CAMB) in Erlenmeyer flasks, or on the same medium with agar in Petri dishes. Exceptionally, Mycobacterium smegmatis was cultivated at 37 °C in brain heart infusion (BHI) medium that was supplemented with 1% Tween-80 in Erlenmeyer flasks, or on the same medium lacking detergent but with agar in Petri dishes. Strains listed with Robert Koch Institute (RKI) strain numbers are clinical isolates from the RKI strain collection originating from hospitalized patients in Germany. The remaining strains originated from the Sanofi strain collection and they were originally purchased from the American Type Culture Collection or the German Collection of Microorganisms and Cell Cultures. Meropenem/colistin-resistant strains were maintained, as described above, with the appropriate antibiotic added at levels below the minimal inhibitory concentration (MIC).
(§2) The MIC values were determined in 384-well microtiter plates with an assay volume of 20 µL. Immediately before each assay, the cultures of test organisms (bacteria grown for 18 h, Candida albicans and M. smegmatis grown for 48 h) were diluted with the appropriate medium to a density of 1 × 10^6 cells/mL (C. albicans), 1 × 10^5 cells/mL (M. smegmatis) or 5 × 10^5 cells per mL (other species). […] We transferred 2-µL aliquots from this dilution series to new 384-well microtiter plates while using a CyBio-Well 384-channel automated pipettor (Analytic Jena, Jena, Germany) and added 18 µL of the diluted suspension of each test species using a Viafill reagent dispenser (Integra), thus reducing the final peptide concentration 10-fold to the range 1024–0.03125 µg/mL. […] The growth of M. smegmatis was measured using the BacTiter-Glo luminescence test system (Promega, Madison, WI, USA). The growth of the other species was determined by visual inspection of the microtiter plate and turbidimetry based on the optical density at 600 nm (OD600). The MIC was defined as the peptide concentration at which no bacterial growth was observed. We supplemented the test medium with either 150 mM NaCl or 1.25 mM CaCl2 to represent monovalent and divalent cations to simulate physiological conditions.

E. coli ATCC 25922 = test system: E. coli ATCC 25922
Experimental: as §1
The MIC values were determined in 384-well microtiter plates with an assay volume of 20 µL. Immediately before each assay, the cultures of test organisms (bacteria grown for 18 h, Candida albicans and M. smegmatis grown for 48 h) were diluted with the appropriate medium to a density of 1 × 10^6 cells/mL (C. albicans), 1 × 10^5 cells/mL (M. smegmatis) or 5 × 10^5 cells per mL (other species). The peptides were dissolved in sterile water at a concentration of 10.24 mg/mL and a 1:2 dilution series was prepared in a 384-well microtiter plate to achieve the concentration range 10,240–0.3125 µg/mL in a volume of 50 µL. We transferred 2-µL aliquots from this dilution series to new 384-well microtiter plates while using a CyBio-Well 384-channel automated pipettor (Analytic Jena, Jena, Germany) and added 18 µL of the diluted suspension of each test species using a Viafill reagent dispenser (Integra), thus reducing the final peptide concentration 10-fold to the range 1024–0.03125 µg/mL. The cells were incubated at 37 °C and 85% relative humidity, shaking at 180 rpm for 48 h (M. smegmatis), 24 h (C. albicans) or 18 h (other species). The growth of M. smegmatis was measured using the BacTiter-Glo luminescence test system (Promega, Madison, WI, USA). The growth of the other species was determined by visual inspection of the microtiter plate and turbidimetry based on the optical density at 600 nm (OD600). […] We supplemented the test medium with either 150 mM NaCl or 1.25 mM CaCl2 to represent monovalent and divalent cations to simulate physiological conditions.

Canida albicans FH2173 = format: cell-based, Candida albicans; conditions: 24 h
Experimental: as §1, §2

E. coli RKI 6A-6 = assay: microbe, parasite or virus in culture; format: cell-based, Escherichia coli
Experimental: as §1, §2

A. baumannii RKI 19/09 = assay: microbe, parasite or virus in culture; format: cell-based, Acinetobacter baumannii
Experimental: as §1, §2

K. pneumoniae RKI 268/15 = format: cell-based, Klebsiella pneumoniae
Experimental: as §1, §2

K. pneumoniae RKI 68/16 = format: cell-based, Klebsiella pneumoniae
Experimental: as §1, §2

[1] = test system: Enterococcus faecium DSM 17050; format: cell-based
Experimental: as §1, §2

Escherichia coli D31 = format: cell-based
Experimental: as §1, §2

[2] = test system: Klebsiella oxytoca RKI 52/07; format: cell-based
Experimental: as §1, §2

[3] = test system: Listeria monocytogenes DSM 20600; format: cell-based
Experimental: as §1, §2

[4] = test system: Mycobacterium smegmatis ATCC 607; format: cell-based
Experimental: as §1, §2

[5] = test system: Proteus mirabilis DSM 4479; format: cell-based
Experimental: as §1, §2

[6] = test system: Pseudomonas aeruginosa ATCC 27853; format: cell-based
Experimental: as §1, §2

[7] = test system: Staphylococcus aureus ATCC 25923; format: cell-based
Experimental: as §1, §2

[8] = test system: Staphylococcus epidermidis ATCC 35984; format: cell-based
Experimental: as §1, §2

E. coli RKI 131/08 = assay: microbe, parasite or virus in culture; format: cell-based, Escherichia coli
Experimental: as §1, §2

K. pneumoniae RKI 93/10 = assay: microbe, parasite or virus in culture; format: cell-based, Klebsiella pneumoniae
Experimental: as §1, §2

[9] = test system: Enterobacter cloacae RKI 146/09; assay: microbe, parasite or virus in culture; format: cell-based
Experimental: as §1, §2

[10] = test system: Acinetobacter baumannii ATCC 19606; format: cell-based
Experimental: as §1, §2

[11] = test system: Klebsiella pneumoniae DSM 30104; format: cell-based
Experimental: as §1, §2

[12] = test system: Stenotrophomonas maltophilia RKI 136/09; format: cell-based; conditions: n=3
Experimental: as §1, §2

[13] = CAMB + 0.075 µg/mL colistin (Col), n=3
[14] = CAMB adjusted to 1.25 mM CaCl2, n=3
[15] = CAMB adjusted to 150 mM NaCl, n=3

Substance: GFLKKIGKKLEGAVQRTRDATIQTIAVAQAAANVAATAKQG [EtCec1]
MIC (S. aureus ATCC 33592; ATCC 33592, 18 h): >1024 µg/mL
MIC (E. coli ATCC 25922; ATCC 25922, 18 h): 16 µg/mL
MIC (Canida albicans FH2173): >1024 µg/mL
MIC (E. coli RKI 6A-6; RKI 6A-6, 18 h): 32 µg/mL
MIC (A. baumannii RKI 19/09; RKI 19/09, 18 h): 16 µg/mL
MIC (K. pneumoniae RKI 268/15; RKI 268/15, 18 h): 64 µg/mL
MIC (K. pneumoniae RKI 68/16; RKI 68/16, 18 h): 64 µg/mL
MIC ([1]; DSM 17050, 18 h): >1024 µg/mL
MIC (Escherichia coli D31; D31, 18 h): 16 µg/mL
MIC ([2]; 18 h): 16 µg/mL
MIC ([3]; DSM 20600, 18 h): >1024 µg/mL
MIC ([4]; ATCC 607, 48 h): >1024 µg/mL
MIC ([5]; DSM 4479, 18 h): >1024 µg/mL
MIC ([6]; ATCC 27853, 18 h): 256 µg/mL
MIC ([7]; ATCC 25923, 18 h): >1024 µg/mL
MIC ([8]; ATCC 35984, 18 h): >1024 µg/mL

MIC (E. coli ATCC 25922; Table 5, CAMB, n=3): 0.5 µg/mL
MIC (E. coli RKI 131/08; Table 5, CAMB, n=3): 0.5 µg/mL
MIC (K. pneumoniae RKI 93/10; Table 5, CAMB, n=3): 1 µg/mL
MIC ([9]; Table 5, CAMB, n=3): 2 µg/mL
MIC (A. baumannii RKI 19/09; Table 5, CAMB, n=3): 0.5 µg/mL
MIC ([10]; Table 5, CAMB, n=3): 1 µg/mL
MIC ([2]; Table 5, CAMB, n=3): 2 µg/mL
MIC ([11]; Table 5, CAMB, n=3): 0.5 µg/mL
Substance: colistin [reference compound]

MIC (S. aureus ATCC 33592; ATCC 33592, 18 h): >1024 µg/mL
MIC (E. coli ATCC 25922; ATCC 25922, 18 h): >1024 µg/mL
MIC (Canida albicans FH2173): >1024 µg/mL
MIC (E. coli RKI 131/08; RKI 131/08, 18 h): >1024 µg/mL
MIC (K. pneumoniae RKI 93/10; RKI 93/10, 18 h): >1024 µg/mL
MIC ([9]; RKI 146/09, 18 h): >1024 µg/mL
MIC (A. baumannii RKI 19/09; RKI 19/09, 18 h): >1024 µg/mL
MIC ([10]; ATCC 19606, 18 h): >1024 µg/mL
MIC ([1]; DSM 17050, 18 h): >1024 µg/mL
MIC ([2]; 18 h): >1024 µg/mL
MIC ([11]; DSM 30104, 18 h): >1024 µg/mL
MIC ([3]; DSM 20600, 18 h): >1024 µg/mL
MIC ([4]; ATCC 607, 48 h): >1024 µg/mL
MIC ([5]; DSM 4479, 18 h): >1024 µg/mL
MIC ([6]; ATCC 27853, 18 h): >1024 µg/mL
MIC ([7]; ATCC 25923, 18 h): >1024 µg/mL
MIC ([8]; ATCC 35984, 18 h): >1024 µg/mL
Substance: GFLKKVGKKLEGASDLTRDATIQTIAVAQAAANVAATAKQG [EtCec3]

Substance: GWLRDFGKRIERTGQNIRDATIQTIGIAQEAANVAATLKG [EtCec2]
MIC (S. aureus ATCC 33592; CAMB, 18 h, 37 °C, n = 4): >1024 µg/mL
MIC (E. coli ATCC 25922; [13]): 4 µg/mL
MIC (E. coli ATCC 25922; [14]): 128 µg/mL
MIC (E. coli ATCC 25922; [15]): 64 µg/mL
MIC (E. coli ATCC 25922; CAMB, 18 h, 37 °C, n = 4): 64 µg/mL
MIC (E. coli ATCC 25922; Table 4, CAMB, n=3): 64 µg/mL
MIC (Canida albicans FH2173; CAMB, 37 °C, n = 4): >1024 µg/mL
MIC (E. coli RKI 131/08; [13]): 2 µg/mL
MIC (E. coli RKI 131/08; [14]): 64 µg/mL
MIC (E. coli RKI 131/08; [15]): 32 µg/mL
MIC (E. coli RKI 131/08; Table 4, CAMB, n=3): 32 µg/mL
MIC (E. coli RKI 6A-6; Table 4, CAMB, n=3): 256 µg/mL
MIC (K. pneumoniae RKI 93/10; [13]): 16 µg/mL
MIC (K. pneumoniae RKI 93/10; [14]): 256 µg/mL
MIC (K. pneumoniae RKI 93/10; [15]): 256 µg/mL
MIC (K. pneumoniae RKI 93/10; Table 4, CAMB, n=3): 128 µg/mL
MIC [9, 13]: 64 µg/mL
MIC [9, 14]: 128 µg/mL
MIC [9, 15]: 128 µg/mL
MIC ([9]; Table 4, CAMB, n=3): 64 µg/mL
MIC (A. baumannii RKI 19/09; [13]): 4 µg/mL
MIC (A. baumannii RKI 19/09; [15]): 16 µg/mL
MIC (A. baumannii RKI 19/09; Table 4, CAMB, n=3): 16 µg/mL
MIC (K. pneumoniae RKI 268/15; Table 4, CAMB, n=3): 256 µg/mL
MIC (K. pneumoniae RKI 68/16; Table 4, CAMB, n=3): 256 µg/mL
MIC [10, 13]: 16 µg/mL
MIC [10, 14]: 64 µg/mL
MIC [10, 15]: 8 µg/mL
MIC ([10]; CAMB, 18 h, 37 °C, n = 4): 32 µg/mL
MIC ([10]; Table 4, CAMB, n=3): 32 µg/mL
MIC ([1]; CAMB, 18 h, 37 °C, n = 4): >1024 µg/mL
MIC (Escherichia coli D31; CAMB, 18 h, 37 °C, n = 4): 16 µg/mL
MIC [2, 13]: 2 µg/mL
MIC ([2]; Table 5, CAMB, n=3): 32 µg/mL
MIC [11, 13]: 2 µg/mL
MIC [11, 14]: 32 µg/mL
MIC [11, 15]: 16 µg/mL
MIC ([11]; CAMB, 18 h, 37 °C, n = 4): 32 µg/mL
MIC ([11]; Table 4, CAMB, n=3): 32 µg/mL
MIC ([3]; CAMB, 18 h, 37 °C, n = 4): >1024 µg/mL
MIC ([4]; BHI, 48 h, 37 °C, BacTiter-Glo, n = 4): >1024 µg/mL
MIC ([5]; CAMB, 18 h, 37 °C, n = 4): >1024 µg/mL
MIC ([6]; CAMB, 18 h, 37 °C, n = 4): >1024 µg/mL
MIC ([7]; CAMB, 18 h, 37 °C, n = 4): >1024 µg/mL
MIC ([8]; CAMB, 18 h, 37 °C, n = 4): >1024 µg/mL
MIC ([12]; CAMB adjusted to 150 mM NaCl): 256 µg/mL
MIC ([12]; Table 4, CAMB): 512 µg/mL

— article PMC7284870, “Antimicrobial Peptides from Rat-Tailed Maggots of the Drone Fly Eristalis tenax Show Potent Activity against Multidrug-Resistant Gram-Negative Bacteria” (Microorganisms, 2020)
